Reference: patent US20230365899A1, “COMPOSITIONS COMPRISING BLEACHING CATALYST, MANUFACTURING PROCESS THEREOF, AND BLEACHING AND CLEANING AGENT COMPRISING SAME” (WEYLCHEM PERFORMANCE PRODUCTS GMBH, priority 2020, published 2023)

How the values were obtained:
[1] = Reference granulation: stability of catalyst/PVOH mixture in water and on fluidised bed drying; format: physicochemical
Procedure: Similar to the process described above for granules 1-7, an aqueous solution of [Mn2(μ-O)3(Me3TACN)2](PF6)2·H2O in water and PVOH were mixed together with the other components to make the granule (corn starch and CaSO4). As the solubility of [Mn2(μ-O)3(Me3TACN)2](PF6)2·H2O in water is relatively low (1.08 wt-% in water at 20° C.—see WO2006/125517), a large amount of water needed to be added to obtain a mixture that has enough of the [Mn2(μ-O)3(Me3TACN)2](PF6)2·H2O catalyst to yield a granule comprising 2 wt-% of [Mn2(μ-O)3(Me3TACN)2](PF6)2·H2O (this would equate to 1.85 L of the aqueous solution of [Mn2(μ-O)3(Me3TACN)2](PF6)2·H2O following the same amounts of chemicals as described in the examples above).
Second observation was that the mixture of the [Mn2(μ-O)3(Me3TACN)2](PF6)2·H2O and PVOH in water was not stable.

[2] = cited from earlier work
[3] = BC-1 (tea stain on cotton) bleaching; conditions: pH 11.5, 1 g/L sodium percarbonate, 40° C., 30 min, Table 3
Procedure: BC-1 (tea stain on cotton) bleaching experiments were carried similarly as described in WO2014/202954. All bleaching experiments were done in duplication.
BC-1 (tea stain on cotton) bleaching was assessed at pH 11.5 in an aqueous solution containing 1 g/L nonionic formulation (Lutensol A07), 0, 1 and 2 μM [Mn2(μ-O)2(μ-CH3COO)(Me4DTNE)]Cl2), 1 g/L sodium percarbonate at 40° C. for 30 min (reference test).
Similarly, the bleaching activity of granule 9 was assessed using the same protocol, except for dissolving granule 9 in demineralised water yielding the same concentrations of catalyst as used in the reference test.

CN1CCN(C)CCN(C)CC1.CN1CCN(C)CCN(C)CC1.F[P-](F)(F)(F)(F)F.F[P-](F)(F)(F)(F)F.O.[Mn+4].[Mn+4].[O-2].[O-2].[O-2] [[Mn2(μ-O)3(Me3TACN)2](PF6)2·H2O, [Mn2(μ-O)3(Me3-TACN)2](PF6)2·H2O]
appearance after fluidised bed drying (catalyst decomposition) ([1]; granulation from dilute aqueous solution with PVOH, corn starch, CaSO4): dark brown granules
stability of mixture of catalyst and PVOH in water ([1]; room temperature): not stable
water solubility ([2]; at 20° C.): 10.8 g/L
solubility in water ([2]; in water at 20° C., see WO2006/125517): 1.08 wt-%

CC(=O)[O-].CN1CCN(C)CCN(CCN2CCN(C)CCN(C)CC2)CC1.[Cl-].[Cl-].[Mn+3].[Mn+4].[O-2].[O-2] [[Mn2(μ-O)2(μ-CH3COO)(Me4DTNE)]Cl2]
ΔR* BC-1 bleaching ([3]; 1.0 μM catalyst): 25.2 (0.1)
ΔR* BC-1 bleaching ([3]; 2.0 μM catalyst): 26.3 (0.1)

CN1CCN(C)CCN(C)CC1.CN1CCN(C)CCN(C)CC1.O=S(=O)([O-])[O-].[Mn+4].[Mn+4].[O-2].[O-2].[O-2] [MnTACNSO4, [Mn2(μ-O)3(Me3TACN)2]SO4]
time the mixture of catalyst and PVOH in solution remained stable ([1]; room temperature): at least 4 days
